Measured values: US20080139664A1, “ANTI-GLYCATION AGENTS FOR PREVENTING AGE-, DIABETES-, AND SMOKING-RELATED COMPLICATIONS” (NATIONAL RESEARCH COUNCIL OF CANADA, priority 2001, published 2008)
Read-outs that look alike come from different tables or passages of the source.

Tests used:
[1] = system: bovine serum albumin (BSA); test: Fluorescamine assay of free primary amino groups of BSA incubated with D-ribose; format: biochemical; details: for Unreacted amino group: free primary amino group on BSA after 5 days at 37° C., agent at 16.8 times IC50, 64% without agent
[2] = system: bovine serum albumin (BSA)
Method: (§1) During the glycation reaction between proteins and reducing sugars, a specific fluorescence with excitation and emission wavelength of 370 nm and 440 nm, respectively, is observed. […] The assay was based on the progressive development of the characteristic Maillard fluorescence (370 nm Ex and 440 nm Em) during the progress of the glycation reaction.
(§2) The final assay volume was 200 μl and each assay well contained 0.075 mM BSA, and 50 mM D-ribose. Compounds were assayed at 3 different concentration levels (0.003, 0.03, and 0.3 mg/mL) to determine the effect of concentration on inhibition. Samples were incubated for 5 days.
(§3) The Maillard fluorescence was directly measured from the reaction solution, except for the anti-glycants that quenched the Maillard fluorescence, which were analyzed by the earlier-described HPLC method.
(§4) Solutions were incubated in microtitre plates (96 wells) at 37° C. for 5 days in a closed system.
(§5) After one hour incubation at 37° C., fluorescence readings were taken.
(§6) The IC50 values of the compounds that quenched the fluorescence of the glycated BSA were analyzed by on-line monitoring of the fluorescence of the glycated BSA separated from the fluorescence quenching assay compound by RP-HPLC. The elution profile was monitored by UV-diode array and by fluorescence (λex=370 nm, λem=440 nm). […] The incubation conditions were the same as above.

[3] = system: bovine serum albumin (BSA); test: SDS-PAGE assessment of BSA-BSA protein cross-links; format: biochemical; details: mixtures further incubated for 4 weeks; further: key: ++: strongly suppressed; +: suppressed; −: no suppression; *: moderate acceleration of the cross-linking
Method: Additionally, protein cross-links were semi-quantitatively assessed by SDS PAGE gel chromatography.
Protein-protein cross-links were characterized by SDS-PAGE. The incubation mixtures used for determination of the amino groups were further incubated for 4 weeks. An aliquot of the solution was applied to Pharmacia SDS FAST gel and the proteins were stained with Coomassie blue.

lysozyme = test: ESI-MS of lysozyme glycoforms after incubation with D-ribose;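 further: lysozyme incubated with D-ribose, with or without anti-glycation agents, then separated by reversed-phase HPLC and analysed by electrospray mass spectrometry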
Method: The effect of anti-glycation agents on the accumulation of glycated forms (glycoforms) of protein was evaluated by using electrospray mass spectrometry (ESI-MS). As the molecular mass of BSA was too large to monitor the small mass changes of its glycoforms, lysozyme was incubated with D-ribose and anti-glycants. Lysozyme and its glycoforms were isolated by RP-HPLC and analyzed by mass spectrometry.
Samples of lysozyme (0.756 mM; 4.54 mM of Lys residues) and D-ribose (50 mM) were incubated in the presence and absence of the selected anti-glycation agents at 37° C. for 5 days and subjected to electrospray mass spectrometry (ESI-MS) in order to characterize the protein intermediates as well as carboxymethylated lysozyme. Prior to MS measurements, the proteins were isolated by reversed phase-HPLC and were semi-dried by freeze drying.

[4] = system: bovine serum albumin (BSA); test: Maillard fluorescence-based assay of AGEs formation, IC50 determination (BSA + D-ribose); details: inhibition of Maillard fluorescence development; 0.075 mM BSA, 50 mM D-ribose, 37° C., 5 days
Method: as §1, §2, §3, §4, §5, §6

[5] = lysozyme + 2D-ribose − 2H2O (14,569 Da), 37° C., 5 days
[6] = lysozyme + 2D-ribose − 3H2O (14,551 Da), 37° C., 5 days
[7] = lysozyme + 2D-ribose − 5H2O (14,533 Da), 37° C., 5 days
[8] = lysozyme + 2D-ribose − 6H2O (14,515 Da), 37° C., 5 days
[9] = lysozyme + D-ribose − 2H2O (14,419 Da), 37° C., 5 days
[10] = lysozyme + D-ribose − 3H2O (14,401 Da), 37° C., 5 days
[11] = lysozyme + D-ribose − H2O (14,437 Da), 37° C., 5 days
[12] = lysozyme + D-ribose − H2O with one carboxymethylated Lys residue (14,496 Da), 37° C., 5 days
[13] = lysozyme with one carboxymethylated Lys residue (14,364 Da), 37° C., 5 days
[14] = unmodified lysozyme (14,305 Da), 37° C., 5 days
[15] = FIG. 2, in words, 37° C., 5 days

Row | SMILES | Unreacted amino group [1] [%] | IC50 [2] [µM] | Suppression of BSA-BSA cross-links [3] | Peak area as % of total area of all glycoforms, 14,569 (lysozyme; [5]) [%] | Peak area as % of total area of all glycoforms, 14,551 (lysozyme; [6]) [%] | Peak area as % of total area of all glycoforms, 14,533 (lysozyme; [7]) [%] | Peak area as % of total area of all glycoforms, 14,515 (lysozyme; [8]) [%] | Peak area as % of total area of all glycoforms, 14,419 (lysozyme; [9]) [%] | Peak area as % of total area of all glycoforms, 14,401 (lysozyme; [10]) [%] | Peak area as % of total area of all glycoforms, 14,437 (lysozyme; [11]) [%] | Peak area as % of total area of all glycoforms, 14,496 (lysozyme; [12]) [%] | Peak area as % of total area of all glycoforms, 14,364 (lysozyme; [13]) [%] | Peak area as % of total area of all glycoforms, 14,305 (lysozyme; [14]) [%] | further results
1 | Oc1cccc2cccnc12 [8-Hydroxyquinoline] | 55 | 95 | + | – | – | – | – | – | – | – | – | – | – | Peak area as % of total area of all glycoforms, 14,305 (lysozyme): 67.8%; Peak area as % of total area of all glycoforms, 14,364 (lysozyme): 4.2%; Peak area as % of total area of all glycoforms, 14,401 (lysozyme): 5.8%; Peak area as % of total area of all glycoforms, 14,419 (lysozyme): 3.6%; Peak area as % of total area of all glycoforms, 14,437 (lysozyme): 9.0%; Peak area as % of total area of all glycoforms, 14,496 (lysozyme): 1.7%; Peak area as % of total area of all glycoforms, 14,515 (lysozyme): 1.7%; Peak area as % of total area of all glycoforms, 14,533 (lysozyme): 1.6%; Peak area as % of total area of all glycoforms, 14,551 (lysozyme): 1.5%; Peak area as % of total area of all glycoforms, 14,569 (lysozyme): 2.3%
2 | CC(C)NC[C@H](O)c1ccc(O)c(O)c1 [L-Isoproterenol] | 73 | – | + | 2.2 | 0.8 | 1.0 | 0.9 | 2.3 | 2.5 | 16.5 | 1.4 | 5.3 | 67.0 | effect on protection of amino groups of BSA ([1]; in words): protect the amino group against glycation
3 | CN(C)[C@@H]1C(O)=C(C(N)=O)C(=O)[C@@]2(O)C(O)=C3C(=O)c4c(O)ccc(Cl)c4[C@@H](O)[C@H]3C[C@@H]12 [Demeclocycline] | 69 | 19 | + | 1.4 | 0.0 | 0.0 | 0.0 | 3.0 | 1.9 | 13.7 | 0.0 | 4.2 | 75.2 | –
4 | CC(C)NC[C@@H](O)c1ccc(O)c(O)c1 [D-Isoproterenol] | 68 | – | + | 1.4 | 0.2 | 0.5 | 0.0 | 1.8 | 0.8 | 13.7 | 0.6 | 4.7 | 76.2 | –
5 | Cc1cc(-c2ccc(/N=N/c3c(S(=O)(=O)O)cc4cc(S(=O)(=O)O)cc(N)c4c3O)c(C)c2)ccc1/N=N/c1c(S(=O)(=O)O)cc2cc(S(=O)(=O)O)cc(N)c2c1O [Trypan blue] | 60 | – | + | 4.6 | 3.4 | 1.9 | 1.6 | 5.6 | 3.0 | 20.2 | 2.1 | 3.7 | 49.8 | IC50 [4]: 240 µM
6 | NC[C@H](O)c1ccc(O)c(O)c1 [D-Norepinephrine] | 67 | 66 | + | 1.0 | 0.0 | 0.0 | 0.0 | 1.9 | 1.9 | 12.1 | 0.7 | 5.0 | 77.3 | –
7 | CNC[C@H](O)c1ccc(O)c(O)c1 [L-Epinephrine] | 69 | 18 | ++ | 1.7 | 0.0 | 0.0 | 0.0 | 2.0 | 0.8 | 15.3 | 1.0 | 4.8 | 74.5 | amount of (AP-H2O) glycoform of lysozyme (lysozyme; [15]): reduced; amount of AP glycoform of lysozyme (lysozyme; [15]): reduced
8 | CN1CCCN=C1/C=C/c1cccc(O)c1 [Oxantel] | 55 | 600 | + | 3.1 | 2.0 | 1.7 | 1.1 | 5.6 | 3.7 | 17.4 | 1.7 | 5.4 | 57.7 | –
9 | CCC(NC(C)C)C(O)c1ccc(O)c(O)c1 (stereo not drawn) [Isoetharine] | 70 | – | + | 1.6 | 0.7 | 0.9 | 0.9 | 1.6 | 1.3 | 14.3 | 1.4 | 3.9 | 73.4 | IC50 [4]: 25 µM
10 | O=C1c2c(O)ccc(O)c2C(=O)c2c(NCCNCCO)ccc(NCCNCCO)c21 [Mitoxantrone] | 50 | 630 | + | 5.9 | 3.6 | 1.3 | 0.8 | 6.5 | 1.9 | 25.2 | 1.0 | 1.6 | 49.8 | –
11 | Cc1cc(N)c2ccccc2c1O [Vitamin K5] | 51 | – | – | 1.6 | 1.3 | 1.6 | 0.0 | 3.3 | 0.0 | 12.2 | 0.0 | 4.9 | 75.1 | IC50 [4]: 90 µM
12 | O=S(=O)(O)c1ccc(O)c2ncccc12 [8-Hydroxyquinoline-5-sulfonic acid] | 76 | 560 | ++ | 5.2 | 0.9 | 1.0 | 0.5 | 3.2 | 2.0 | 27.9 | 0.0 | 0.7 | 58.0 | –
13 | NC[C@@H](O)c1ccc(O)c(O)c1 [L-Norepinephrine] | 70 | – | + | 1.2 | 0.0 | 0.0 | 0.0 | 2.4 | 2.3 | 12.0 | 0.9 | 5.3 | 75.9 | –
